System: 926638-142-R-J1-PDC complex spheroid viability
Test: Anticancer human tumor 926638-142-R-J1-PDC patient-derived endometrial carcinoma cell line growth inhibition [POLQ]
Conditions: for IC50: curve of first compound; for viability, T/C: stronger effect = lower value
Procedure, shortened: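 PDC + HUVEC + MSC complex spheroids; POLQ inhibitors ± partner drugs; top conc. at/near clinical Cmax, else 10 microM (SN-38 1 microM), half-log dilutions; 37 degrees C, 5% CO2.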

[1] = second compound 0.0316 µM, first compound 0.0316 µM
[2] = second compound 0.0316 µM, first compound 0.1 µM
[3] = second compound 0.0316 µM, first compound 0.316 µM
[4] = second compound 0.0316 µM, first compound 1 µM
[5] = second compound 0.1 µM, first compound 0.0316 µM
[6] = second compound 0.1 µM, first compound 0.1 µM
[7] = second compound 0.1 µM, first compound 0.316 µM
[8] = second compound 0.1 µM, first compound 1 µM
[9] = second compound 0.316 µM, first compound 0.0316 µM
[10] = second compound 0.316 µM, first compound 0.1 µM
[11] = second compound 0.316 µM, first compound 0.316 µM
[12] = second compound 0.316 µM, first compound 1 µM
[13] = second compound 1 µM, first compound 0.0316 µM
[14] = second compound 1 µM, first compound 0.1 µM
[15] = second compound 1 µM, first compound 0.316 µM
[16] = second compound 1 µM, first compound 1 µM
[17] = second compound 3.16 µM, first compound 0.0316 µM
[18] = second compound 3.16 µM, first compound 0.1 µM
[19] = second compound 3.16 µM, first compound 0.316 µM
[20] = second compound 3.16 µM, first compound 1 µM
[21] = second compound 10 µM, first compound 0.0316 µM
[22] = second compound 10 µM, first compound 0.1 µM
[23] = second compound 10 µM, first compound 0.316 µM
[24] = second compound 10 µM, first compound 1 µM
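Further: spheroids exposed to drugs for one week before readout.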
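Wherever viability, T/C is given: percent viability relative to DMSO vehicle control wells set as 100%.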

COc1cccc(OCCCN)c1-c1cc(Nc2cnc(C#N)cn2)n[nH]1 + Nc1ccc(C#CCN(C(=O)Cc2ncc(C(F)(F)F)cc2C(F)(F)F)c2ccc(F)cc2)nn1
IC50 (second compound 0.0316 µM): 70.7 nM | IC50 (second compound 0.1 µM): 112 nM | IC50 (second compound 0.316 µM): 94.9 nM | IC50 (second compound 1 µM): 77.6 nM | IC50 (second compound 3.16 µM): 40.6 nM | IC50 (second compound 10 µM): 65.4 nM | viability, T/C (second compound 0.0316 µM, first compound 0.00316 µM): 115% | viability, T/C (second compound 0.0316 µM, first compound 0.01 µM): 76.4% | viability, T/C [1]: 56% | viability, T/C [2]: 47.3% | viability, T/C [3]: 49.3% | viability, T/C [4]: 32.3% | viability, T/C (second compound 0.1 µM, first compound 0.00316 µM): 115% | viability, T/C (second compound 0.1 µM, first compound 0.01 µM): 84.6% | viability, T/C [5]: 62.7% | viability, T/C [6]: 50.7% | viability, T/C [7]: 48.4% | viability, T/C [8]: 31.3% | viability, T/C (second compound 0.316 µM, first compound 0.00316 µM): 111% | viability, T/C (second compound 0.316 µM, first compound 0.01 µM): 79.2% | viability, T/C [9]: 60.4% | viability, T/C [10]: 48.3% | viability, T/C [11]: 48.2% | viability, T/C [12]: 36.7% | viability, T/C (second compound 1 µM, first compound 0.00316 µM): 121% | viability, T/C (second compound 1 µM, first compound 0.01 µM): 78.5% | viability, T/C [13]: 60.6% | viability, T/C [14]: 45.9% | viability, T/C [15]: 48.5% | viability, T/C [16]: 31.6% | viability, T/C (second compound 3.16 µM, first compound 0.00316 µM): 89.5% | viability, T/C (second compound 3.16 µM, first compound 0.01 µM): 73.4% | viability, T/C [17]: 49.5% | viability, T/C [18]: 43.4% | viability, T/C [19]: 45.2% | viability, T/C [20]: 31.7% | viability, T/C (second compound 10 µM, first compound 0.00316 µM): 86.6% | viability, T/C (second compound 10 µM, first compound 0.01 µM): 71.7% | viability, T/C [21]: 50.2% | viability, T/C [22]: 44.2% | viability, T/C [23]: 51.3% | viability, T/C [24]: 27.1%

C#Cc1c(F)ccc2cc(O)cc(-c3ncc4c(N5CC6CCC(C5)N6)nc(OCC56CCCN5CC(F)C6)nc4c3F)c12 (centres undefined) + COC1C(OC(N)=O)C(O)C(Oc2ccc3c(O)c(NC(=O)c4ccc(O)c(CC=C(C)C)c4)c(=O)oc3c2C)OC1(C)C
IC50 (second compound 0.0316 µM): > 10000 nM | IC50 (second compound 0.1 µM): > 10000 nM | IC50 (second compound 0.316 µM): > 10000 nM | IC50 (second compound 1 µM): > 10000 nM | IC50 (second compound 3.16 µM): > 10000 nM | IC50 (second compound 10 µM): > 10000 nM | viability, T/C [1]: 99.4% | viability, T/C [2]: 84.1% | viability, T/C [3]: 89% | viability, T/C [4]: 84.2% | viability, T/C (second compound 0.0316 µM, first compound 3.16 µM): 60.1% | viability, T/C (second compound 0.0316 µM, first compound 10 µM): 54.6% | viability, T/C [5]: 90.2% | viability, T/C [6]: 86.6% | viability, T/C [7]: 81.3% | viability, T/C [8]: 72.9% | viability, T/C (second compound 0.1 µM, first compound 3.16 µM): 66.4% | viability, T/C (second compound 0.1 µM, first compound 10 µM): 51.9% | viability, T/C [9]: 97.1% | viability, T/C [10]: 73.7% | viability, T/C [11]: 89.4% | viability, T/C [12]: 64.9% | viability, T/C (second compound 0.316 µM, first compound 3.16 µM): 59.4% | viability, T/C (second compound 0.316 µM, first compound 10 µM): 65.9% | viability, T/C [13]: 84.8% | viability, T/C [14]: 81.7% | viability, T/C [15]: 80.9% | viability, T/C [16]: 71.9% | viability, T/C (second compound 1 µM, first compound 3.16 µM): 72.2% | viability, T/C (second compound 1 µM, first compound 10 µM): 61.9% | viability, T/C [17]: 78.9% | viability, T/C [18]: 84.2% | viability, T/C [19]: 77.9% | viability, T/C [20]: 72.2% | viability, T/C (second compound 3.16 µM, first compound 3.16 µM): 64.4% | viability, T/C (second compound 3.16 µM, first compound 10 µM): 52.5% | viability, T/C [21]: 85.2% | viability, T/C [22]: 73.5% | viability, T/C [23]: 91.3% | viability, T/C [24]: 67.4% | viability, T/C (second compound 10 µM, first compound 3.16 µM): 68.4% | viability, T/C (second compound 10 µM, first compound 10 µM): 62.9%

Reference: PubChem BioAssay AID1963826 (Molecular Pharmacology Branch, DTP, NCI, 2024)
